Molecules are shown by their SMILES. Activity calls are given as the source filed them. The calls are words filed in the database; no cut-off is given here.

One assay relates to Panagrellus redivivus. Briefly: Nematicidal activity against Panagrellus redivivus assessed as mortality at 100 ug/ml after 24 hr by microscopic analysis. The assay is classed as functional.
In a further assay the test system is Fusarium oxysporum. Nature of the assay: Antimicrobial activity against Fusarium oxysporum at 100 ug/ml after 72 hr. The assay is classed as functional, organism-based.
A further assay deals with Staphylococcus aureus. Nature of the assay: Antimicrobial activity against Staphylococcus aureus at 100 ug/ml after 72 hr. The assay is classed as functional, organism-based.
The test system of a further assay is Manduca sexta. Briefly: Antifeedant activity against Manduca sexta at 100 ug/ml after 6 days. The assay is classed as functional.
The test system of a further assay is Candida parapsilosis. Briefly: Antimicrobial activity against Candida parapsilosis at 100 ug/ml after 72 hr. The class given is functional.
The next assay has as its system Candida albicans. Briefly: Antimicrobial activity against Candida albicans at 100 ug/ml after 72 hr. The class given is functional.
Another assay relates to Aspergillus parasiticus. Nature of the assay: Antimicrobial activity against Aspergillus parasiticus at 100 ug/ml after 72 hr. The class given is functional, organism-based.
Assay [1] has as its system Staphylococcus epidermidis. Briefly: Antimicrobial activity against Staphylococcus epidermidis at 100 ug/ml after 72 hr. The class given is functional, organism-based.
For a further assay, the system named is Escherichia coli. Nature of the assay: Antimicrobial activity against Escherichia coli at 100 ug/ml after 72 hr. The class given is functional, organism-based.
The test system of the next assay is Heliothis virescens. Briefly: Antifeedant activity against Heliothis virescens (tobacco budworm) at 100 ug/ml after 6 days. The class given is functional.
A further assay concerns Caenorhabditis elegans. Nature of the assay: Nematicidal activity against Caenorhabditis elegans assessed as mortality at 100 ug/ml after 24 hr by microscopic analysis. The class given is functional.
For another assay, the system named is Aspergillus flavus. Briefly: Antimicrobial activity against Aspergillus flavus at 100 ug/ml after 72 hr. The assay is classed as functional, organism-based.
The next assay deals with Pichia kudriavzevii. Briefly: Antimicrobial activity against Pichia kudriavzevii at 100 ug/ml after 72 hr. The class given is functional.
The subject of another assay is Helicoverpa zea. Nature of the assay: Antifeedant activity against Helicoverpa zea (corn earworm) at 100 ug/ml after 6 days. The assay is classed as functional.
Assay [2] has as its system Aedes aegypti. Briefly: Mosquitocidal activity against fourth-instar larvae of Aedes aegypti assessed as mortality after 24 hr. The assay is classed as functional, organism-based.
The test system of assay [3] is Aedes aegypti. Nature of the assay: Mosquitocidal activity against fourth-instar larvae of Aedes aegypti assessed as mortality at 100 ug/ml after 24 hr. The class given is functional.
Assay [4] has as its system Aedes aegypti. Nature of the assay: Mosquitocidal activity against fourth-instar larvae of Aedes aegypti assessed as mortality at 200 ug/ml after 24 hr. The assay is classed as functional.

In the case of `CC(C)=CCC/C(C)=C/CO`, the mortality result in the assay on Panagrellus redivivus, in the assay with Caenorhabditis elegans and in the assay on Aedes aegypti [2] was “inactive” each time. Further, the result (in the assay with Fusarium oxysporum; in the assay with Staphylococcus aureus; with Manduca sexta; with Aspergillus parasiticus; in [1]; in the assay on Escherichia coli) was inactive. The outcome in the assay on Heliothis virescens, with Aspergillus flavus and in the assay on Helicoverpa zea was inactive. Also, the “inhibition zone (IZ)” value with Candida parapsilosis, in the assay with Candida albicans and with Pichia kudriavzevii was “inactive” throughout.
As for `C/C=C/c1cc(OC)c(OC)cc1OC` [TRANS-ASARONE], the mortality at 100 µg/mL was found to be 100% with Panagrellus redivivus, 43% in the assay on Aedes aegypti [3] and 100% with Caenorhabditis elegans. Further, the outcome (in the assay on Fusarium oxysporum; with Staphylococcus aureus; with Aspergillus parasiticus; in [1]; with Escherichia coli; with Aspergillus flavus) was inactive. Also, the results for the Activity in the assay on Manduca sexta, in the assay on Heliothis virescens and in the assay with Helicoverpa zea were 79%, 96% and 97%, respectively. Besides, the zone of inhibition at 100 µg/mL in the assay with Candida parapsilosis (Lodderomyces parapsilosis, read-out: IZ) stood at 6 mm; in the assay on Candida albicans (read-out: IZ) it was 6 mm; in the assay on Pichia kudriavzevii (read-out: IZ), 7 mm. In addition, the mortality at 200 µg/mL in the assay with Aedes aegypti [4] came to 100%. Moreover, in the assay with Aedes aegypti [2], the mortality result was “Active”.
Regarding `COc1cc(OC)c(OC)cc1C=O`, the mortality result in the assay on Panagrellus redivivus, in the assay on Caenorhabditis elegans and with Aedes aegypti [2] was “inactive” each time. The outcome (with Fusarium oxysporum; with Staphylococcus aureus; with Manduca sexta; with Aspergillus parasiticus; in assay [1]; with Escherichia coli) was inactive. Also, the outcome in the assay on Heliothis virescens, in the assay with Aspergillus flavus and with Helicoverpa zea was inactive. Moreover, the “inhibition zone (IZ)” value in the assay on Candida parapsilosis, with Candida albicans and in the assay with Pichia kudriavzevii was “inactive” each time.
On to `CCCCCCCC/C=C\CCCCCCCC(=O)O`, for which the mortality result with Panagrellus redivivus, with Caenorhabditis elegans and with Aedes aegypti [2] was “inactive” each time. The outcome (in the assay with Fusarium oxysporum; in the assay on Staphylococcus aureus; with Aspergillus parasiticus; in assay [1]; with Escherichia coli; with Aspergillus flavus) was inactive. Besides, the “inhibition zone (IZ)” value in the assay on Candida parapsilosis, with Candida albicans and in the assay with Pichia kudriavzevii was “inactive” each time.

The record behind these values is ChEMBL document CHEMBL3045214, “Pest-managing efficacy of trans-asarone isolated from Daucus carota L. seeds” (2002).
